# Measured values from patent US20030180291A1, “Method of inactivating viruses” (priority 1998, published 2003).
# Where “and” joins values, the source holds several entries; their conditions need not be identical. Equal entries are not always repeated.
# Columns and labels:
# [1] = tested on: PseudoRabies virus (PSR, strain Bartha K61)
# [2] = tested on: Vesicular Stomatitis (VSV, strain Indiana)
# [3] = tested on: Humane Immunodeficiency Virus Type 1 (HIV-1, strain HTLV-IIIb)
# humane erythrocytes = assay type: cell-based, human
# [4] = tested on: Vesicular Stomatitis virus (VSV); assay type: cell-based
SMILES,effective [DMMB] [1],effective [DMMB] [2],effective [DMMB] [3],effect of dipyridamol on the effective concentration of sensitizer [1],haemolysis after the erythrocytes had been stored for 12 days at 4° C. (humane erythrocytes),effect of dipyridamol on the effective concentration of sensitizer [2],effect of dipyridamol on the effective concentration of sensitizer [3],effect of light exposure on virus inactivation in absence of sensitizer [4]
"Cc1cc(=[N+](C)C)cc2sc3cc(N(C)C)cc(C)c3nc1-2.[Cl-] [DMMB, dimethyl-methylene blue]",4 µM,4 µM and 5 µM,8 µM,–,–,–,–,–
OCCN(CCO)c1nc(N2CCCCC2)c2nc(N(CCO)CCO)nc(N3CCCCC3)c2n1 [dipyridamol],–,–,–,"did not, or only barely appear to affect",very strong reduction,"did not, or only barely appear to affect","did not, or only barely appear to affect",no effect at all
Cc1ncc(COP(=O)(O)O)c(C=O)c1O [pyridoxal phosphate],–,–,–,–,–,–,–,no effect at all
